Molecules are shown by their SMILES.

In one assay the test system is Complex I. The assay is described as follows: Complex I activity. The following applies: MDA-468 and MCF7 cells, 50 μM, 1-3 days. The class given is cell-based, human. The procedure: In FIG. 26A MDA-231, MDA-468, MCF7, and BT-474 breast cancer cells were treated with compound 1 (50 μM) for 1-3 days. Complex I activity increased in MDA-468 and MCF7 cells. In FIG. 26B T47D-Vector control or T47D-RUNX2-clone #10 overexpressing cells; MCF7-Vector Control or RUNX2-clone #2 overexpressing cells were treated with 50 μM compound 1 for 1 day.

Assay [1] has as its target T1, RUNX2 (Homo sapiens, UniProt Q13950). The assay is described as follows: D-ELISA DNA binding assay. The following applies: read-out: IC50 in D-ELISA DNA binding assays (RUNX2 DNA binding). Set-up: endogenous in cells. The procedure:
A microtiter plate-based D-ELISA was performed as described. Briefly, nuclear proteins were isolated from HBME-1 cells that express all three RUNX proteins and bound to double-stranded DNA oligonucleotides of human osteocalcin and MMP13 (forward primer: 5′-TTCTACCACAAACCACACTCGTTCTACCACAAACCACACTCGTTCTACCACAAACCACACTCG-Biotin-3′, SEQ ID NO: 4 and reverse primer: 5′-CGAGTGTGGTTTGTGGTAGAACGAGTGTGGTTTGTGGTAGAACGAGTGTGGTTTGTGGTAGAA-Biotin-3′, SEQ ID NO: 5). Vehicle (0.05% DMSO) or compound 1 at different concentrations were incubated with the proteins and DNA oligonucleotide mixture in Avidin-coated 96-well plates. DNA-bound RUNX proteins were captured with specific antibodies (Cell Signaling Technologies). Primary and secondary antibody dilution was 1:500 and 1:10,000, respectively.

Assay [2] concerns the target T1, RUNX2. The assay is described as follows: Western blot of RUNX2, RUNX1, CBF-β. The format is cell-based. Set-up: endogenous in cells; host or cells: MDA-231, MDA-468. The procedure:
Whole cell lysates extracted in RIPA buffer (Upstate) were separated on 4-12% gradient SDS-PAGE and transferred to nitrocellulose membrane. The blots were incubated with specific antibodies for each protein overnight at 4° C. After antibody washing, the blots were reacted with their respective secondary antibody and detected with enhanced chemiluminescence reagents (Millipore) according to the supplier's protocol. Antibodies for proteins were purchased as below. RUNX1, RUNX2, CBF-β, ubiquitin and caspase-3 (Cell Signaling Technologies), S451-p-RUNX2 (Bioss Gentaur, Belgium), RUNX3 and Glut-1 (Millipore, Calif.), β-actin and RUNX2 antibody for IHC (Sigma-Aldrich), and Ki-67 for IHC (Bethyl Laboratories, Inc, TX).

For the next assay, the system named is TAZ. The assay is described as follows: Nuclear TAZ levels by Western blot. The class given is cell-based, human. The procedure: MCF7 cells were grown to subconfluence in the presence or absence of doxycycline for 72 hr in full media as described above. Cells were then treated in minimal DMEM (Sigma, D5030) containing 0.1% BSA, 1% L-glutamine, 2% Tet-Approved FBS, and 1 mM glucose for 16 hours followed by treatment with 2 ng/mL TGFβ (R&D Systems, 240-B-002) for 48 hours in the presence or absence of EGTA to examine sE-Cad expression levels, TAZ localization, and HER2 expression levels. Cells were washed with PBS and scraped from plates. Cytoplasmic and nuclear lysates were obtained using the Low/High Salt extraction method. Cytoplasmic extracts were obtained by resuspending cells in NP40 containing Hypotonic Buffer (10 mM HEPES pH 7.4, 1.5 mM MgCl2, 10 mM KCI, 0.5% NP40) followed by a 30 min incubation on ice and centrifiugation. Nuclear extracts were obtained by resuspending the nuclear pellet in an equal volume of low salt buffer (10 mM HEPES, 25% glycerol, 1.5 mM MgCl2, 20 mM KCI, 0.2 mM EDTA) followed by high salt buffer (10 mM HEPES, 25% glycerol, 1.5 mM MgCl2, 800 mM KCl, 0.2 mM EDTA) followed by vortexing, 30 min incubation on ice, another vortex, and centrifugation. Samples were resolved on 4-12% Bis-Tris polyacrylamide gradient gels (Invitrogen) and transferred to PVDF membranes (Millipore). Membranes were probed with antibodies listed below followed by development with enhanced ECL (Millipore). […] Protein levels were normalized to actin and quantified using NIH Image-J software.
MCF7 Tet.OFF cells were pretreated in the absence or presence of doxycycline for 3 days. […] Nuclear and cytoplasmic extracts were obtained using High/Low salt extraction method and protein levels analyzed by Western blot (see above).

T1 sequence (Q13950 whole entry): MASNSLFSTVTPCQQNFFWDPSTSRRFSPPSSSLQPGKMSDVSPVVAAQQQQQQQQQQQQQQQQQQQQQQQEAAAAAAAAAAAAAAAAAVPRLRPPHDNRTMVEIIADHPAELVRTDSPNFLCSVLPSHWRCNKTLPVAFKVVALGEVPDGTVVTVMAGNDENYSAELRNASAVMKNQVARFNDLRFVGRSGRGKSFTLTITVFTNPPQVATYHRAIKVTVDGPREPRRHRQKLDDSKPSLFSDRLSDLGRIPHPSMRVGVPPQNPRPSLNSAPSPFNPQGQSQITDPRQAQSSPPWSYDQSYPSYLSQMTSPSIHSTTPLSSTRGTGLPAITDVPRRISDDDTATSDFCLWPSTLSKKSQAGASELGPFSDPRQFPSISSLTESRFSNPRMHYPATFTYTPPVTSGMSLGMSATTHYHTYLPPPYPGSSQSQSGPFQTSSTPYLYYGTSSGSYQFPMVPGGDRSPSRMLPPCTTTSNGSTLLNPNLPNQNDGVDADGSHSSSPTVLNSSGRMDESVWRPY

For orientation: IC50 means the concentration at which inhibition is half-maximal. As to `O=C(O)C1C2C=CC(C2)C1C(=O)Nc1ccc(Cl)c(Cl)c1` (centres unmarked) [compound 1, 3-(N-(3,4-dichlorophenyl)carbamoyl)-5-norbornene-2-carboxylic acid], the “Complex I activity” value with Complex I is “increased”. In addition, the IC50 at RUNX2 [1] is 10 nM. The “nuclear translocation of RUNX2 protein” value at RUNX2 [2] is on record as “did not block or attenuate”. In addition, the S451-p-RUNX2 levels entry on RUNX2 [2] (Empty controls, MDA-468 and MCF7) is listed as “clearly reduced”. Moreover, at RUNX2 [2] (MDA-468 and MDA-231 cells, cycloheximide, 50 μM), the RUNX2 protein stability result is “increased RUNX2 stability”. Besides, the “reduction in nuclear TAZ levels compared to vehicle” value in the assay on TAZ (HCC1428 cells expressing endogenous RUNX2) came to 80%. Besides, the “nuclear TAZ levels” value with TAZ (RUNX2 negative cells (doxycycline +), over 72 hr) was “no affect”. Moreover, in the assay on TAZ (RUNX2 positive MCF7 cells (doxycycline -), 50 μM, within 24 hr), the TAZ nuclear levels entry is on record as “lowered”.
